The text below walks through data of article PMC10272112 (Nature Communications, 2023).

The target in one assay is T1, HDAC8 (Homo sapiens, UniProt Q9BY41).
T1 sequence (Q9BY41 1-377): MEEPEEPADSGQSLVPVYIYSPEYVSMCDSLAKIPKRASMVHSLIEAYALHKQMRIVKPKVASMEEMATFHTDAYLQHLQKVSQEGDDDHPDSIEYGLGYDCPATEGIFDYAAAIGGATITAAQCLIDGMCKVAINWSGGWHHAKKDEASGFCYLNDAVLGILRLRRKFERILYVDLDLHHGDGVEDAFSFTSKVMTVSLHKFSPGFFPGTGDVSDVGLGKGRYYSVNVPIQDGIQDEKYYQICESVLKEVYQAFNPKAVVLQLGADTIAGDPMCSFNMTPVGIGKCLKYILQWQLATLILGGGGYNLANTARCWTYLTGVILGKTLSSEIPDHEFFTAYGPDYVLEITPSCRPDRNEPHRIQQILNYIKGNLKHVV
The assay is described as follows: HDAC-Glo assay. Type of assay: biochemical. Also noted: purchased BPS Bioscience 50008. The following applies: read-out: log EC50 from dose-dependent HDAC inhibition curves (converted). The method, then: (§1) To validate the inhibition of HDACs by LA and LM and elaborate on the structure-activity relationship (SAR) of enantiomers as well as oxidized versus reduced forms of the molecules, we performed enzyme activity assays for recombinant HDAC1,2,3,6,8 as well as FRET-based binding assay for recombinant HDAC10.
(§2) The experiments were performed according to ref. [48]. […] Drug dosing was performed with a D300e Digital Dispenser (Tecan). HDACs (7 ng/mL for HDAC1, 25 ng/mL for HDAC2, 200 ng/mL for HDAC3/Ncor2 complex, 100 ng/mL for HDAC6, 200 ng/mL for HDAC8) and inhibitors were incubated together at room temperature (RT) for 30 min. After the addition of the HDAC-Glo™ I/II reagent, plates were shaken (800 rpm orbital shaker, 30 s), centrifuged (300 g, 1 min), and incubated at RT for 30 min. Luminescence was detected with a CLARIOstar (BMG Labtech) plate reader.

For the next assay, the system named is DDX3X AcK118. The assay is described as follows: DDX3X acetylation detection by western blot, CBP-HA transfected HEK293T. The format is cell-based. Here is the method:
0.2 × 10^6 HEK293T (ATCC: CRL-3216) cells were transfected with pcDNA 3.1-HA CBP plasmids (1 μg/well for the 6-well plate) by FuGENE. After 2 days, cells were treated with ACY-738, lipoic acid, and lipoamide for 7 h, then were washed by ice-cold PBS and lysed in Triton lysis buffer (50 mM Tris, pH 8.0, 150 mM NaCl, 1 mM EDTA, 0.1% TritonX-100 and complete EDTA-free protease inhibitors (Roche)) for analysis. To detect protein acetylation, 0.2 μM Trichostatin A and 5 mM nicotinamide were added to PBS for washing, and 10 μM trichostatin A, 10 mM nicotinamide, and 50 mM sodium butyrate were added to Triton lysis buffer.
For orientation: In western blotting, separated proteins are transferred to a membrane and probed.

The target of the next assay is T2, HDAC3/NcoR2 complex (Homo sapiens, UniProt O15379).
T2 construct: purchased BPS Bioscience 50003
Put plainly: HDAC-Glo assay. The format is biochemical. The following applies: for EC50: read-out: log EC50 from dose-dependent HDAC inhibition curves (converted); for HDCA3 relative activity: sheet S2b. The method, then:
as §1, §2

Several values for one entry are separate records, joined by “and”; a condition that tells them apart may be missing. Equal values may be shown once.

T2 sequence (O15379 whole entry): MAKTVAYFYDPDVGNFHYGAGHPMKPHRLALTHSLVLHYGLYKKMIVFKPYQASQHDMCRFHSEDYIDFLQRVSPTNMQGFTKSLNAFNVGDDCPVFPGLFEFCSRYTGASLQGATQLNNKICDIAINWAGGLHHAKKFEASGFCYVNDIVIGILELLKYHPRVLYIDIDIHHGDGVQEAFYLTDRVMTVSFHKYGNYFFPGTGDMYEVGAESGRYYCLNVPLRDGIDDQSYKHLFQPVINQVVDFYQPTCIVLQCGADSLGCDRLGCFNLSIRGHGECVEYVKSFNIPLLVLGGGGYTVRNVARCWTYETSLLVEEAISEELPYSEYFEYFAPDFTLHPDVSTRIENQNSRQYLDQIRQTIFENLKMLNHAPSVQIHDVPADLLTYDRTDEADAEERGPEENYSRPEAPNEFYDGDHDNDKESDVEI
T2 sequence (Q9Y618 395-489 partner limits assumed): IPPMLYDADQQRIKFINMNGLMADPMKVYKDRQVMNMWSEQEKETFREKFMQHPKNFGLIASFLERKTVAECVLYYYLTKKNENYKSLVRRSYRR

Turning to `O=C(O)CCCCC1CCSS1` (racemic) [(R/S)-LA, (R/S)-lipoic acid], the EC50 was 22.3 µM on HDAC8 and 41.7 µM on HDAC3/NcoR2 complex. The “DDX3X AcK118 acetylation level relative to control” value in the assay with DDX3X AcK118 (1 mM) was found to be 2.4 fold; in the assay with DDX3X AcK118 (.5 (mM)) it was 1.8 fold. For the same molecule, the “HDAC enzymatic activity (normalized luminescence)” value at HDAC3/NcoR2 complex (0.5 M TCEP, log10 M -3.30103, 3 technical replicates) was 7.256 and 7.282 and 7.339; on HDAC3/NcoR2 complex (0.5 M TCEP, log10 M -3.82945, 3 technical replicates) it was 17.0785 and 16.9479 and 17.22; at HDAC3/NcoR2 complex (0.5 M TCEP, log10 M -4.35788, 3 technical replicates) it was 49.3596 and 49.0858 and 50.0362; on HDAC3/NcoR2 complex (0.5 M TCEP, log10 M -4.88629, 3 technical replicates), 95.5948 and 97.1564 and 98.2162; on HDAC3/NcoR2 complex (0.5 M TCEP, log10 M -5.41477, 3 technical replicates), 101.96 and 103.73 and 105.005; at HDAC3/NcoR2 complex (0.5 M TCEP, log10 M -5.94309, 3 technical replicates), 91.2378 and 92.4271 and 93.0815. The “HDAC enzymatic activity (normalized luminescence)” value at HDAC3/NcoR2 complex (0.5 M TCEP, log10 M -6.47756, 3 technical replicates) was 89.2879 and 93.1305 and 94.7241; at HDAC3/NcoR2 complex (0.5 M TCEP, log10 M -6.87615, 3 technical replicates) it was 90.3991 and 92.4306 and 92.5457; at HDAC3/NcoR2 complex (no TCEP, log10 M -3.30103, 3 technical replicates), 64.3889 and 65.753 and 66.6157; at HDAC3/NcoR2 complex (no TCEP, log10 M -3.82945, 3 technical replicates), 67.3361 and 68.514 and 68.6262; on HDAC3/NcoR2 complex (no TCEP, log10 M -4.35788, 3 technical replicates) it was 79.5043 and 81.2871 and 81.6059; on HDAC3/NcoR2 complex (no TCEP, log10 M -4.88629, 3 technical replicates) it was 87.8136 and 89.4197 and 90.6707. In addition, the “HDAC enzymatic activity (normalized luminescence)” value was 88.1589 and 90.4647 and 92.122 on HDAC3/NcoR2 complex (no TCEP, log10 M -5.41477, 3 technical replicates); 88.1501 and 88.386 and 90.7058 on HDAC3/NcoR2 complex (no TCEP, log10 M -5.94309, 3 technical replicates); 88.6188 and 88.5508 and 90.3108 on HDAC3/NcoR2 complex (no TCEP, log10 M -6.47756, 3 technical replicates); 97.6646 and 98.0479 and 97.5948 on HDAC3/NcoR2 complex (no TCEP, log10 M -6.87615, 3 technical replicates). Also, the HDCA3 relative activity at HDAC3/NcoR2 complex (log conc -3.30103) was 4.168 and 4.13 and 4.176; on HDAC3/NcoR2 complex (log conc -3.82945), 8.909 and 8.94 and 8.919; at HDAC3/NcoR2 complex (log conc -4.35788) it was 25.3559 and 24.0859 and 24.4605; at HDAC3/NcoR2 complex (log conc -4.88629), 55.6369 and 56.3521 and 62.4157; at HDAC3/NcoR2 complex (log conc -5.41477) it was 100.947 and 102.17 and 103.057; at HDAC3/NcoR2 complex (log conc -5.94309) it was 105.476 and 106.045 and 106.401. The HDCA3 relative activity was 89.5862 and 90.873 and 93.4553 on HDAC3/NcoR2 complex (log conc -6.47756); 104.127 and 108.406 and 102.786 at HDAC3/NcoR2 complex (log conc -6.87615).
As to `NC(=O)CCCCC1CCSS1` (racemic) [(R/S)-LM, (R/S)-lipoamide], the 50% effective concentration (EC50) is 7.73 µM at HDAC8 and 15.6 µM at HDAC3/NcoR2 complex. Also, the results for the “DDX3X AcK118 acetylation level relative to control” value with DDX3X AcK118 (1 mM) and with DDX3X AcK118 (.5 (mM)) were 2.4 fold and 2.1 fold, respectively. In addition, the HDCA3 relative activity is 69.6623 and 70.4079 and 69.1097 at HDAC3/NcoR2 complex (log conc -3.30103); 75.2589 and 76.6842 and 75.5671 on HDAC3/NcoR2 complex (log conc -3.82945); 87.3214 and 88.0897 and 87.877 at HDAC3/NcoR2 complex (log conc -4.35788); 91.0887 and 91.1636 and 92.3406 on HDAC3/NcoR2 complex (log conc -4.88629); 88.6242 and 91.0601 and 91.2237 at HDAC3/NcoR2 complex (log conc -5.41477); 95.2751 and 94.3928 and 97.2335 on HDAC3/NcoR2 complex (log conc -5.94309). In addition, the HDCA3 relative activity on HDAC3/NcoR2 complex (log conc -6.47756) was 90.1183 and 90.3135 and 93.1985; on HDAC3/NcoR2 complex (log conc -6.87615) it was 107.529 and 106.868 and 106.288.

The EC50 is the midpoint of the concentration-response curve.
